Data taken from US10093678B2, “Azaspiro derivatives as TRPM8 antagonists” (RaQualia Pharma Inc., priority 2014, dated 2018).

Target: T1, human TRPM8 (Homo sapiens, UniProt Q7Z2W7)
T1 construct: expressed in transfected cells; host or cells: HEK293
Test: Menthol-induced Ca2+ influx in HEK293 cells stably expressing human TRPM8
Assay type: cell-based
Conditions: 30 microM menthol-induced Ca2+ influx, read-out: IC50 against TRPM8
Experimental: Measurement of the Menthol-Induced Ca^2+ Influx in HEK293 Cells Stably Expressing Human TRPM8
A cell-based Ca^2+ influx assay using HEK293 cells stably expressing human TRPM8 is used to identify the activity of compounds.
HEK293 cells stably expressing human TRPM8 are grown in T175 flasks at 37° C. in a 5% CO2 humidified incubator to about 80% confluence. Media composition consists of Dulbecco's Modified Eagle Medium (high glucose), 10% fetal calf serum (FCS), 100 units/mLPenicillin, 100 microg/mL Streptomycin and 600 microg/mL Geneticine. At 24 hours prior to assay, cells are seeded in poly-D-lysine coated 384-well plates (BD FALCON) at a density of 30,000 cells per well in culture medium and grown overnight in 5% CO2 at 37° C. On the assay day, growth media is removed and cells are loaded with 0.5 microM Fluo4-AM (Molecular Probes) and 0.005% Pluronic F-127 dissolved in assay buffer (Hank's balanced salt solution (HBSS), 19.4 mM HEPES pH7.4, 2.5 mM Probenecid) for 1 hour at room temperature. After washing with assay buffer, the cells are preincubated with various concentrations of the compounds for 5 min. The changes in intracellular calcium concentration by addition of 30 microM menthol are monitored by the cell imaging technology by Hamamatsu Photonics Functional Drug Screening System (FDSS).
The IC50 values for compounds of the present invention are determined from 11-point dose-response studies. Curves are generated using the average of duplicate wells for each data point. Finally, the IC50 values are calculated with the best-fit dose curve determined by XLfit (ID Business Solutions Ltd.).

T1 sequence (Q7Z2W7 whole entry): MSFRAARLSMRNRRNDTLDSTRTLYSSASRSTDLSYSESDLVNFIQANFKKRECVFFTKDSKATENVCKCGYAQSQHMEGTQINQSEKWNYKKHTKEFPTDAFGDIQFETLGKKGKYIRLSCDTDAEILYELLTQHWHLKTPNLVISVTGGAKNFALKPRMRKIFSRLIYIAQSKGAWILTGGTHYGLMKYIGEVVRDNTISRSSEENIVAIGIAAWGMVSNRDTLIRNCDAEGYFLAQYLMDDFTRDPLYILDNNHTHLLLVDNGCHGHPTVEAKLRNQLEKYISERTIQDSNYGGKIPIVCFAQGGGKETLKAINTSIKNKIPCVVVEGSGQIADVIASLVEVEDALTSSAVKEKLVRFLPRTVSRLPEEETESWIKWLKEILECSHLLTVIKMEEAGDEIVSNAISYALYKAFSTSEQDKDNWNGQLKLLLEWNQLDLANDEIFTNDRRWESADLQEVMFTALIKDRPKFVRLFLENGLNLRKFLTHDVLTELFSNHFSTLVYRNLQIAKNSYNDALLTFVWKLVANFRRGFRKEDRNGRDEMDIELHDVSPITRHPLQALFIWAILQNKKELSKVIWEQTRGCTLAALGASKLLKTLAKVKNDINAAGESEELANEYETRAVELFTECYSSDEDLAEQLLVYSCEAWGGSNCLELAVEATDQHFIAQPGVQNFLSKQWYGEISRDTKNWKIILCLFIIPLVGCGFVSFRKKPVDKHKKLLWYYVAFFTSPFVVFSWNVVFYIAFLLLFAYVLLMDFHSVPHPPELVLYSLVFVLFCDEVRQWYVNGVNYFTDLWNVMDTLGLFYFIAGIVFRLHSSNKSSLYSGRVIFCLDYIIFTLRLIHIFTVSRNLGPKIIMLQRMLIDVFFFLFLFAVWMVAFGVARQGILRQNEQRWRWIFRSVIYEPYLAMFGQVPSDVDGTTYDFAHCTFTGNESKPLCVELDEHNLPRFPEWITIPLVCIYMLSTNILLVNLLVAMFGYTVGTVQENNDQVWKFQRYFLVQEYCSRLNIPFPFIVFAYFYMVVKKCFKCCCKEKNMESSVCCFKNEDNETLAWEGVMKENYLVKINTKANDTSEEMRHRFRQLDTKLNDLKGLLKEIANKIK

Row | IC50 | Structure (SMILES)
1 | < 100 nM | Cn1c(C(=O)CN2C(=O)NC3(CCC(F)(F)CC3)C2=O)nc(C2CC2)c1-c1cccnc1 [Example 17-5]
2 | < 100 nM | O=C(CN1C(=O)NC2(CCC(F)(F)CC2)C1=O)c1ccc(Oc2cccnc2)cc1 [Example 21-14, 8,8-difluoro-3-(2-oxo-2-(4-(pyridin-3-yloxy)phenyl)ethyl)-1,3-diazaspiro[4.5]decane-2,4-dione]
3 | < 100 nM | Cc1nc(C(=O)CN2C(=O)NC3(CCC(F)(F)CC3)C2=O)sc1-c1ccccc1C#N [Example 18-6]
4 | < 100 nM | Cc1cc(C(=O)CN2C(=O)NC3(CCC(F)(F)CC3)C2=O)ccc1-c1cccc(C#N)c1 [Example 13-11]
5 | < 100 nM | COc1ccccc1-c1sc(C(=O)CN2C(=O)NC3(CCC(F)(F)CC3)C2=O)cc1C [Example 14-12]
6 | < 500 nM | O=C(CN1C(=O)NC2(CCC(F)(F)CC2)C1=O)c1ccc(-c2cncc3[nH]ncc23)nc1 [Example 9-27]
7 | < 100 nM | O=C(CN1C(=O)NC2(CCC(F)(F)CC2)C1=O)c1ccc(-c2ccccc2CO)c(Cl)c1 [Example 13-27]
8 | < 100 nM | Cc1cc(C(=O)CN2C(=O)NC3(CCC(F)(F)CC3)C2=O)n(C)c1-c1cccc(C(N)=O)c1 [Example 16-6]
9 | < 100 nM | Cc1ncccc1-c1ccc(C(=O)CN2C(=O)NC3(CCC(F)(F)CC3)C2=O)cn1 [Example 9-15]
10 | < 100 nM | Cc1cc(C(=O)CN2C(=O)NC3(CCC(F)(F)CC3)C2=O)sc1-c1cccnc1C [Example 14-9]
11 | < 100 nM | O=C(CN1C(=O)NC2(CCC(F)(F)CC2)C1=O)c1ccc(Oc2cccc(Cl)c2)nc1 [Example 20-8]
12 | < 500 nM | O=C(CN1C(=O)NC2(CCC(F)(F)CC2)C1=O)c1ccc(-c2ccnc3[nH]ncc23)nc1 [Example 9-26]
13 | < 500 nM | Cc1cc(C(=O)CN2C(=O)NC3(CCC(F)(F)CC3)C2=O)sc1-c1cccnc1CO [Example 14-19]
14 | < 10 nM | O=C(CN1C(=O)NC2(CCC(F)(F)CC2)C1=O)c1ccc(-c2cccc3ccncc23)cc1 [Example 13-36]
15 | < 100 nM | CCOc1nc2ccc(C)nc2n1-c1ccc(C(=O)CN2C(=O)NC3(CCC(F)(F)CC3)C2=O)cc1 [Example 26-4]
16 | < 100 nM | Cc1ccncc1-c1c(C)sc(C(=O)CN2C(=O)NC3(CCC(F)(F)CC3)C2=O)c1C [Example 15-4]
17 | < 100 nM | Cc1ccncc1-c1ccc(C(=O)CN2CC3(CCC(F)(F)CC3)OC2=O)cc1 [Example 13-53]
18 | < 100 nM | O=C(CN1C(=O)NC2(CCC(F)(F)CC2)C1=O)c1ccc(-c2cncc(F)c2)c(Cl)c1 [Example 13-26]

Row | IC50 | Structure (SMILES)
19 | < 100 nM | O=C(CN1C(=O)NC2(CCC(F)(F)CC2)C1=O)c1ccc(-n2ccc3ccccc32)cc1 [Example 19-18]
20 | < 500 nM | O=C(CN1C(=O)NC2(CCCCC2)C1=O)c1ccc(OCCNc2ccccc2)nc1 [Example 20-4]
21 | < 500 nM | Cc1ccccc1-c1ccc(C(=O)CN2C(=O)NC3(CCC(F)(F)CC3)C2=O)n1C [Example 16-32]
22 | < 100 nM | CN(c1ccc(C(=O)CN2C(=O)NC3(CCC(F)(F)CC3)C2=O)cc1)c1ccccn1 [Example 19-16]
23 | < 500 nM | COCc1nc2cccnc2n1-c1ccc(C(=O)CN2C(=O)NC3(CCC(F)(F)CC3)C2=O)cc1 [Example 24-4]
24 | < 500 nM | Cc1ncccc1-c1sc(C(=O)CN2C(=O)NC3(CCC(F)(F)CC3)C2=O)nc1C [Example 18-8]
25 | < 10 nM | Cc1ccncc1-c1sc(C(=O)CN2C(=O)NC3(CCC(F)(F)CC3)C2=O)cc1C [Example 14-5]
26 | < 100 nM | O=C(CN1C(=O)NC2(CCC(F)(F)CC2)C1=O)c1ccc(-c2cccc3[nH]ccc23)cc1 [Example 13-42]
27 | < 500 nM | Cc1cccc(Oc2ccc(C(=O)CN3C(=O)NC4(CCC(F)(F)CC4)C3=O)cc2)n1 [Example 21-6]
28 | < 100 nM | O=C(CN1C(=O)NC2(CCC(F)(F)CC2)C1=O)c1ccc(-n2ccc3cccnc32)nc1 [Example 19-10]
29 | < 100 nM | O=C(CN1C(=O)NC2(CCC(F)(F)CC2)C1=O)c1ccc(-c2cncc3[nH]ccc23)nc1 [Example 9-23]
30 | < 100 nM | Cc1ncccc1-c1ccc(C(=O)CN2C(=O)NC3(CCC(F)(F)CC3)C2=O)nc1 [Example 10-1]
31 | < 10 nM | Cc1ccccc1-c1ccc(C(=O)CN2C(=O)NC3(CCCCC3)C2=O)cn1 [Example 9-2]
32 | < 100 nM | Cc1cc(C(=O)CN2C(=O)NC3(CCC(F)(F)CC3)C2=O)n(C)c1-c1cccc2ccncc12 [Example 16-15]
33 | < 500 nM | N#Cc1cccc(-c2ccc(C(=O)CN3C(=O)NC4(CCC(F)(F)CC4)C3=O)cc2Cl)c1 [Example 13-68]
34 | < 100 nM | Cn1c(-c2cccc3ccncc23)cnc1C(=O)CN1C(=O)NC2(CCC(F)(F)CC2)C1=O [Example 17-2]
35 | < 100 nM | O=C(CN1C(=O)NC2(CCC(F)(F)CC2)C1=O)c1ccc(-c2ccccc2CO)nc1 [Example 9-17]

More lines, now with the values behind:

Row | Structure (SMILES) | IC50
36 | Cc1nc2c(-c3ccc(C(=O)CN4C(=O)NC5(CCC(F)(F)CC5)C4=O)cc3)cccc2[nH]1 [Example 6-65] | < 500 nM
37 | Cc1nc(C(=O)CN2C(=O)OC3(CCCCC3)C2=O)c(C)n1-c1ccccc1 [Example 2-4] | < 100 nM
38 | O=C(CN1C(=O)NC2(CCC(F)(F)CC2)C1=O)c1ccc(-c2ccc3ccncc3c2)cc1 [Example 6-96] | < 500 nM
39 | Cc1c(C(=O)CN2CC3(CCC(F)(F)CC3)OC2=O)ccn1-c1ccccc1 [Example 4-9] | < 500 nM
40 | O=C(CN1CC2(CCC(F)(F)CC2)OC1=O)c1ccc(-c2cccnc2CO)cc1 [Example 7-18] | < 500 nM
41 | N#Cc1ccccc1Cc1ccc(C(=O)CN2C(=O)NC3(CCC(F)(F)CC3)C2=O)cc1 [Example 6-120] | < 500 nM
42 | N#Cc1nccnc1-c1ccc(C(=O)CN2C(=O)NC3(CCC(F)(F)CC3)C2=O)cc1F [Example 8-1] | < 100 nM
43 | Cc1c(C(=O)CN2C(=O)NC3(CCC(F)(F)CC3)C2=O)ccn1-c1ccccc1 [Example 4-6] | < 100 nM
44 | O=C(CN1C(=O)NC2(CCC(F)(F)CC2)C1=O)c1ccc(-c2ccccc2CCO)cc1 [Example 6-106] | < 100 nM
45 | O=C(CN1C(=O)NC2(CCC(F)(F)CC2)C1=O)c1ccc(-c2cccnc2)nc1 [Example 5-1] | < 100 nM
46 | O=C(CN1C(=O)NC2(CCC(F)(F)CC2)C1=O)c1ccc(-c2nccc3occc23)cc1 [Example 6-31] | < 100 nM
47 | N#Cc1cccnc1-c1ccc(C(=O)CN2C(=O)NC3(CCC(F)(F)CC3)C2=O)cc1 [Example 6-87] | < 100 nM
48 | O=C(CN1CC2(CCC(F)(F)CC2)OC1=O)c1ccc(-c2cnccc2CO)cc1 [Example 7-16] | < 500 nM
49 | O=C(CN1C(=O)NC2(CCC(F)(F)CC2)C1=O)c1ccc(-c2ccncc2Cl)cc1 [Example 6-122] | < 100 nM
50 | O=C(CN1C(=O)NC2(CCC(F)(F)CC2)C1=O)c1ccc(Oc2ncccn2)cc1 [Example 5-21] | < 500 nM
51 | COc1nccnc1-c1ccc(C(=O)CN2C(=O)NC3(CCC(F)(F)CC3)C2=O)cc1 [Example 6-97] | < 100 nM

Row | Structure (SMILES) | IC50
52 | Cc1nc2ccccc2n1-c1ccc(C(=O)CN2C(=O)NC3(CCC(F)(F)CC3)C2=O)cn1 [Example 5-14] | < 10 nM
53 | Cn1cc2c(-c3ccc(C(=O)CN4C(=O)NC5(CCC(F)(F)CC5)C4=O)cc3)cccc2n1 [Example 6-69] | < 500 nM
54 | O=C(CN1C(=O)NC2(CCC(F)(F)CC2)C1=O)c1ccc(Oc2ccccc2)nc1 [Example 5-23] | < 500 nM
55 | Cc1cnc(-n2c(C)cc(C(=O)CN3C(=O)NC4(CCC(F)(F)CC4)C3=O)c2C)s1 [Example 3-17] | < 100 nM
56 | Cc1nc(C(=O)CN2C(=O)NC3(CCC(F)(F)CC3)C2=O)c(C)n1-c1cccc(F)c1 [Example 2-11] | < 100 nM
57 | Cc1ncncc1-c1ccc(C(=O)CN2C(=O)NC3(CCC(F)(F)CC3)C2=O)cc1 [Example 6-34] | < 100 nM
58 | Cc1cc(-n2c(C)cc(C(=O)CN3C(=O)NC4(CCC(F)(F)CC4)C3=O)c2C)on1 [Example 3-1] | < 100 nM
59 | Cc1c(C(=O)CN2C(=O)NC3(CCCCC3)C2=O)nn(C)c1-c1ccccc1 [Example 4-2] | < 100 nM
60 | N#Cc1cccc(-c2ccc(C(=O)CN3C(=O)NC4(CCC(F)(F)CC4)C3=O)cc2)n1 [Example 6-26] | < 100 nM
61 | COc1cc(C(=O)CN2C(=O)NC3(CCC(F)(F)CC3)C2=O)ccc1-c1cccnc1 [Example 5-3] | < 100 nM
62 | O=C(CN1C(=O)NC2(CCC(F)(F)CC2)C1=O)c1ccc(-c2nccnc2OCCO)cc1 [Example 6-54, 8,8-difluoro-3-(2-(4-(3-(2-hydroxyethoxy)pyrazin-2-yl)phenyl)-2-oxoethyl)-1,3-diazaspiro[4.5]decane-2,4-dione] | < 100 nM
63 | CCc1cc(C(=O)CN2C(=O)NC3(CCCCC3)C2=O)c(C)n1-c1cc(C)on1 [Example 1-14] | < 500 nM
64 | Nc1ncccc1-c1ccc(C(=O)CN2C(=O)NC3(CCCCC3)C2=O)cc1 [Example 7-13] | < 100 nM
65 | Cc1nc(C(=O)CN2C(=O)NC3(CCCCC3)C2=O)c(C)n1-c1ccccc1 [Example 2-1] | < 100 nM
66 | Cc1nc2ccc(C(F)(F)F)nc2n1-c1ccc(C(=O)CN2C(=O)NC3(CCC(F)(F)CC3)C2=O)cc1 [Example 5-31] | < 100 nM
